Experimental data as given in ChEMBL document CHEMBL5352478, “Novel pyridine-containing histone deacetylase inhibitors strongly arrest proliferation, induce apoptosis and modulate miRNAs in cancer cells” (Eur J Med Chem, 2023).
“And” between values parts separate entries of the source, which are not always exact repeats. Equal values may be shown once.

Columns and labels:
[1] = molecular target: T1, Protein deacetylase HDAC6 (Homo sapiens, UniProt Q9UBN7); conditions: read-out: IC50
T1 sequence (Q9UBN7 whole entry): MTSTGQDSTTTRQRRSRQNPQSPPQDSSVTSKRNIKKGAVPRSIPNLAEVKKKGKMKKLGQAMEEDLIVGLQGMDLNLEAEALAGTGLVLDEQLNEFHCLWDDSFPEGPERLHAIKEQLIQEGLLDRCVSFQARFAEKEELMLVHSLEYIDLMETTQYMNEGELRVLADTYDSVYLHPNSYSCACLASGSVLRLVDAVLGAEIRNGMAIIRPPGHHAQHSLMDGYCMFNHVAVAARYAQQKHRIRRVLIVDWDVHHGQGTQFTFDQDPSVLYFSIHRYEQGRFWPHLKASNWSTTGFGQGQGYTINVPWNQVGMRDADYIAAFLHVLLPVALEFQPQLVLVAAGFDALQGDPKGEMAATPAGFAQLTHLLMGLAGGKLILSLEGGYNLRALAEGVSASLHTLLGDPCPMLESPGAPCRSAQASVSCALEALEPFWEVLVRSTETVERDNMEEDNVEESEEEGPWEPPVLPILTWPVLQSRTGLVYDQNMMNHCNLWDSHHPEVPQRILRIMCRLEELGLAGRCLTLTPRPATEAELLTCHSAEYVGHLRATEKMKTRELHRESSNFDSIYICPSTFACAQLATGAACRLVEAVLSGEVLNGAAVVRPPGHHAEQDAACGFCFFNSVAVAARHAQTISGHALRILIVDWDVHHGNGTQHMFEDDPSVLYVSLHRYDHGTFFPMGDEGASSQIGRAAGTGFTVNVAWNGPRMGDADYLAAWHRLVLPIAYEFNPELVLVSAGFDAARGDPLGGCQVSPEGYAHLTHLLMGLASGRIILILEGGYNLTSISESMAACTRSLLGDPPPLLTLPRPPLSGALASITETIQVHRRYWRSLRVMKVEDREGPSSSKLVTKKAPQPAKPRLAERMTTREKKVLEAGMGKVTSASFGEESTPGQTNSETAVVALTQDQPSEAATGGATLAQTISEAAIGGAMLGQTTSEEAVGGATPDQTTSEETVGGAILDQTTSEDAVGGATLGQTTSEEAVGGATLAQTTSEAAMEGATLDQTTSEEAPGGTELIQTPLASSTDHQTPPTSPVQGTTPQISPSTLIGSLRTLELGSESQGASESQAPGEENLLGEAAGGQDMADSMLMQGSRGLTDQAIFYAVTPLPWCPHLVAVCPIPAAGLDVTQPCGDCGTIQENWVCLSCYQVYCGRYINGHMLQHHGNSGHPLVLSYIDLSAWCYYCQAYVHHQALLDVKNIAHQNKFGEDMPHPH

HCT-116 = assay: cells; format: functional, cell-based; conditions: Homo sapiens, HCT-116, 72 h
A549 = assay: cells; format: functional, cell-based; conditions: Homo sapiens, A549, 72 h
K562 [2] = assay: cells; format: functional, cell-based; conditions: Homo sapiens, K562, 72 h
K562 [3] = assay: Potency index, ratio of SAHA IC50 to test compound IC50 for antiproliferative activity against human K562 cell; format: functional
U-937 [4] = assay: Induction of cell cycle arrest in human U-937 cells assessed as accumulation of cells in pre-G1 phase at 5 uM for 24 hrs by PI staining based flow cytometric analysis; format: functional
U-937 [5] = assay: Induction of cell cycle arrest in human U-937 cells assessed as accumulation of cells in pre-G1 phase at 1 uM for 48 hrs by PI staining based flow cytometric analysis; format: functional
U-937 [6] = assay: Induction of cell cycle arrest in human U-937 cells assessed as accumulation of cells in pre-G1 phase at 5 uM for 48 hrs by PI staining based flow cytometric analysis; format: functional
U-937 [7] = assay: Induction of cell cycle arrest in human U-937 cells assessed as cell death at 5 uM for 48 hrs by PI staining based flow cytometric analysis; format: functional
U-937 [8] = assay: Induction of cell cycle arrest in human U-937 cells assessed as accumulation of cells in G2/M phase at 1 uM for 24 hrs by PI staining based flow cytometric analysis; format: functional
U-937 [9] = assay: Induction of cell cycle arrest in human U-937 cells assessed as accumulation of cells in G1 phase at 1 to 5 uM for 48 hrs by PI staining based flow cytometric analysis; format: functional; conditions: dose 1-5 µM
Histone deacetylase 1 = Histone deacetylase 1 (Homo sapiens, UniProt Q13547)
Histone deacetylase 3 = Histone deacetylase 3 (Homo sapiens, UniProt O15379)
Histone deacetylase 2 = Histone deacetylase 2 (Homo sapiens, UniProt Q92769)
Histone deacetylase 5 = Histone deacetylase 5 (Homo sapiens, UniProt Q9UQL6)
[10] = molecular target: T2, Polyamine deacetylase HDAC10 (Homo sapiens, UniProt Q969S8)
T2 sequence (Q969S8 whole entry): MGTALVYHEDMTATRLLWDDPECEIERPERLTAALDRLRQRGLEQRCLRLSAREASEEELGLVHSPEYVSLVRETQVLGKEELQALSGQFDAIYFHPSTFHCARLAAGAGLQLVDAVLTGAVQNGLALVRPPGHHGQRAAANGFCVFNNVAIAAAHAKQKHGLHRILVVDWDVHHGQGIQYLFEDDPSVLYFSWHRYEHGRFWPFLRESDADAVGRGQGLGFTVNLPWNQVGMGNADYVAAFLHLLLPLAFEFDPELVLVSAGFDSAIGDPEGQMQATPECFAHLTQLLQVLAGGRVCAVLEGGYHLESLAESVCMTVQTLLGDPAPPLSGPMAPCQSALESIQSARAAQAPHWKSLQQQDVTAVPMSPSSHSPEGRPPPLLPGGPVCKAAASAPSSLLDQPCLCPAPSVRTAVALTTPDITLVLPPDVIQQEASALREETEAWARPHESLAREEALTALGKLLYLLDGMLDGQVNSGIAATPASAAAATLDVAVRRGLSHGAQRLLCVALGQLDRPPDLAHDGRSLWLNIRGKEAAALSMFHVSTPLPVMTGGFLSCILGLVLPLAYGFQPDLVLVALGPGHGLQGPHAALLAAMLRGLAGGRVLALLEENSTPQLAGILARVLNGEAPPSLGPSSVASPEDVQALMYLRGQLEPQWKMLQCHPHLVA

OCI-AML-3 = assay: Antiproliferative activity against human OCI-AML-3 cells incubated for 48 hrs; format: functional, cell-based; conditions: OCI-AML-3, 48 h
[11] = Antiproliferative activity against human IMS-M2 cells incubated for 48 hrs; format: functional, cell-based; conditions: IMS-M2, 48 h
OCI-AML2 = assay: Antiproliferative activity against human OCI-AML2 cells incubated for 48 hrs; format: functional, cell-based; conditions: OCI-AML2, 48 h
MV4-11 = assay: Antiproliferative activity against human MV4-11 cells incubated for 48 hrs; format: functional, cell-based; conditions: MV4-11, 48 h
Kasumi 1 = assay: Antiproliferative activity against human Kasumi 1 cells incubated for 48 hrs; format: functional, cell-based; conditions: Kasumi 1, 48 h
U-937 [12] = assay: Antiproliferative activity against human U-937 cells incubated for 48 hrs; format: functional, cell-based; conditions: U-937, 48 h
HL-60 = assay: Antiproliferative activity against human HL-60 cells incubated for 48 hrs; format: functional, cell-based; conditions: HL-60, 48 h
KARPAS-299 = assay: Antiproliferative activity against human KARPAS-299 cells incubated for 48 hrs; format: functional, cell-based; conditions: KARPAS-299, 48 h
NB-4 = assay: Antiproliferative activity against human NB4 cells incubated for 48 hrs; format: functional, cell-based; conditions: NB-4, 48 h
Histone deacetylase 8 [13] = molecular target: T3, Histone deacetylase 8 (Homo sapiens, UniProt Q9BY41)
T3 sequence (Q9BY41 whole entry): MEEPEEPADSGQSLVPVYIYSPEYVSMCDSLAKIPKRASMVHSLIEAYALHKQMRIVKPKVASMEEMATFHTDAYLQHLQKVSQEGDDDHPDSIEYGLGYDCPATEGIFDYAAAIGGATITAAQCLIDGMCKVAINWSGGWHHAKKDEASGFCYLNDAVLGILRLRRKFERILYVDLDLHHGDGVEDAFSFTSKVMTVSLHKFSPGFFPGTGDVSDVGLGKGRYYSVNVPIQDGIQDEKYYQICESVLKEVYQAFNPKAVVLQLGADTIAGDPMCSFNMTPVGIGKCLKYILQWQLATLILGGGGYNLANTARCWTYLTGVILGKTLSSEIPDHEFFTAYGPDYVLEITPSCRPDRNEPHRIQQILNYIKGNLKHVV

Histone deacetylase 7 [14] = molecular target: T4, Histone deacetylase 7 (Homo sapiens, UniProt Q8WUI4)
T4 sequence (Q8WUI4 whole entry): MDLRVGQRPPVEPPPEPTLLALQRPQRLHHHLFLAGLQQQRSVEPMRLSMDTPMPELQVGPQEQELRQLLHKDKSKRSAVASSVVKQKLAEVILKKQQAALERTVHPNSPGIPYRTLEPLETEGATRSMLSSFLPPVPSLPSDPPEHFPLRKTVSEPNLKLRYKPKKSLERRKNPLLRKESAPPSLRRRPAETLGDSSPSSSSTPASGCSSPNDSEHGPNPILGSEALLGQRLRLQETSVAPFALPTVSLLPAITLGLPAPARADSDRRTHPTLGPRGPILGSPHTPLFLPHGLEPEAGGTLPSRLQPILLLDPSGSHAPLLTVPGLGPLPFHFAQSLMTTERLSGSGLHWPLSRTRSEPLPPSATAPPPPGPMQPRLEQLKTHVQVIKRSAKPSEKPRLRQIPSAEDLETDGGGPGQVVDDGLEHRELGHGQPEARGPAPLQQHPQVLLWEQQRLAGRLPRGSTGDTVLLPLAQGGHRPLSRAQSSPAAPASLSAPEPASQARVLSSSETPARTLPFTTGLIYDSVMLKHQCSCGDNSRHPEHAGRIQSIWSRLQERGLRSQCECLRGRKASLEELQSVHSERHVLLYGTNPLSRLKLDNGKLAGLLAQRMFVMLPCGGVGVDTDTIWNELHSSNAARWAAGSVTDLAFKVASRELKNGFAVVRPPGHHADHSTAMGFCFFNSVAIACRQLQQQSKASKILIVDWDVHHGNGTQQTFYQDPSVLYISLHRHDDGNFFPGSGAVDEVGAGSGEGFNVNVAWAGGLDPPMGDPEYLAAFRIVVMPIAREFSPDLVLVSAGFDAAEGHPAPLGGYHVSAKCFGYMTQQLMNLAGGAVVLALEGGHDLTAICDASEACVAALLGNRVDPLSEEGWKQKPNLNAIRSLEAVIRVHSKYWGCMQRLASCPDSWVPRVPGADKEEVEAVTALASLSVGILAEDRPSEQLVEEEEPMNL

Histone deacetylase 9 [15] = molecular target: T5, Histone deacetylase 9 (Homo sapiens, UniProt Q9UKV0)
Histone deacetylase 11 [16] = molecular target: T6, Histone deacetylase 11 (Homo sapiens, UniProt Q96DB2)
T6 sequence (Q96DB2 whole entry): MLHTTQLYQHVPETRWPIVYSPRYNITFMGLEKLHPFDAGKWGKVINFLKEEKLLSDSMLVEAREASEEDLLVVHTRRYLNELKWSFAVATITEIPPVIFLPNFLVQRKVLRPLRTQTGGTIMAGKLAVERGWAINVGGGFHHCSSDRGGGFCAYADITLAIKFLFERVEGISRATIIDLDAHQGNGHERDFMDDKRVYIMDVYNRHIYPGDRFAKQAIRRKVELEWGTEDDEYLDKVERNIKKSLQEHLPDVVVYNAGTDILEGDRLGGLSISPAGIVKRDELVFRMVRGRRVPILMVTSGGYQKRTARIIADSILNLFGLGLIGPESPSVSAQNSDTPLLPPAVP

Histone deacetylase 4 = Histone deacetylase 4 (Homo sapiens, UniProt P56524)
Histone deacetylase 8 [17] = molecular target: T3, Histone deacetylase 8; remark: listed apart in the source
Histone deacetylase 7 [18] = molecular target: T4, Histone deacetylase 7; remark: listed apart in the source
Histone deacetylase 9 [19] = molecular target: T5, Histone deacetylase 9; remark: listed apart in the source
Histone deacetylase 11 [20] = molecular target: T6, Histone deacetylase 11; remark: listed apart in the source

Sequence of Histone deacetylase 2 (Q92769 whole entry): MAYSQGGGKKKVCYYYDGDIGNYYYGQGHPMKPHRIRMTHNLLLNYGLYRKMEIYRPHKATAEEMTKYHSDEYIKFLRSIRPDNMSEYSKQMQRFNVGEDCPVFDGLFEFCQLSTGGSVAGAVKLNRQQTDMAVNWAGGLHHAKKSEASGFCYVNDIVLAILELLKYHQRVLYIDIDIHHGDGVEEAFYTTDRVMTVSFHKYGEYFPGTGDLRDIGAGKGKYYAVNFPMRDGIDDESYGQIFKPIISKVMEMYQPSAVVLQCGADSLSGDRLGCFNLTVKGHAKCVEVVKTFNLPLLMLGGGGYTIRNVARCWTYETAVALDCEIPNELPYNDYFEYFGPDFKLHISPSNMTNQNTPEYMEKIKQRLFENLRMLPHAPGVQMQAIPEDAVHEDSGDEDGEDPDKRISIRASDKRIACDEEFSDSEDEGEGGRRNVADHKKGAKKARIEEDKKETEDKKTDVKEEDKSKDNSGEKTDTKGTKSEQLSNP
Sequence of Histone deacetylase 3 (O15379 whole entry): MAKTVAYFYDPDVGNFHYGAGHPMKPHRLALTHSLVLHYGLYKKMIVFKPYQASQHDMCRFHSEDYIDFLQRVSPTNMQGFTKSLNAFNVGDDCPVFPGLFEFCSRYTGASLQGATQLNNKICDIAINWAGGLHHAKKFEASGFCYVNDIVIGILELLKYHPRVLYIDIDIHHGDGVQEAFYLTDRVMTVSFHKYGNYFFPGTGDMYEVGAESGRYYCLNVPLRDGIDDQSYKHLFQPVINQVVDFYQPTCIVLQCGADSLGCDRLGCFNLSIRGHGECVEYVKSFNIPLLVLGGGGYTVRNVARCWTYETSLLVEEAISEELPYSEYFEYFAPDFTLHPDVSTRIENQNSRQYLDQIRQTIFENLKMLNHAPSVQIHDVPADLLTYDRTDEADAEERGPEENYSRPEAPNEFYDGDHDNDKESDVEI
Sequence of Histone deacetylase 5 (Q9UQL6 whole entry): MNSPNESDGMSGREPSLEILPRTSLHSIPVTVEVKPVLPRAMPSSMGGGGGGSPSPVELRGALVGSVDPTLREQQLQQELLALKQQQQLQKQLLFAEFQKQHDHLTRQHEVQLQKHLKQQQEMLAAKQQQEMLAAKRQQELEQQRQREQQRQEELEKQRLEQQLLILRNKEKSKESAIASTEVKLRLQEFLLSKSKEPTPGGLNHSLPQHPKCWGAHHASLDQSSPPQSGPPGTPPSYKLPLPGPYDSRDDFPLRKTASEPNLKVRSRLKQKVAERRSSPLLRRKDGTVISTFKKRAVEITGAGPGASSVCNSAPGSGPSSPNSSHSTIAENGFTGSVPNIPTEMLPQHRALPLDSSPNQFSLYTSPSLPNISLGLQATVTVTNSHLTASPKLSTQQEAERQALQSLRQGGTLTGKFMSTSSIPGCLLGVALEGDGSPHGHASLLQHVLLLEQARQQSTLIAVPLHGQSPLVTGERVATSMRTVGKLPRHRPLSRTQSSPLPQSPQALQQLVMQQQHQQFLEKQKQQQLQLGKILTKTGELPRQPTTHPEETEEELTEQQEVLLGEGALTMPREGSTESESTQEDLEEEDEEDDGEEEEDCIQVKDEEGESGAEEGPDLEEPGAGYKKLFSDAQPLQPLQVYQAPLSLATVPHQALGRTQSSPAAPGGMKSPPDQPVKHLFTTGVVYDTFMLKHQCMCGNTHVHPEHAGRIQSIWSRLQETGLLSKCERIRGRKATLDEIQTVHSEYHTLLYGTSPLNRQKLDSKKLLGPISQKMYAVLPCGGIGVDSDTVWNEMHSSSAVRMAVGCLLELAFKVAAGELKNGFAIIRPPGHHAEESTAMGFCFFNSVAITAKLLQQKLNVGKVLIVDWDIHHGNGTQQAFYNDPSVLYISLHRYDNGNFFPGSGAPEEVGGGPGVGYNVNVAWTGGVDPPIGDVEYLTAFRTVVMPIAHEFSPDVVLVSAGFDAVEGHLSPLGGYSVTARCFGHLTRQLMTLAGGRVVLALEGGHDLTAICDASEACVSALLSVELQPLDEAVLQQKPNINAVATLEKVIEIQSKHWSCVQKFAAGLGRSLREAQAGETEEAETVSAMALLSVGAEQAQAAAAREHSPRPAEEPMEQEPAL
T5 sequence (Q9UKV0 whole entry): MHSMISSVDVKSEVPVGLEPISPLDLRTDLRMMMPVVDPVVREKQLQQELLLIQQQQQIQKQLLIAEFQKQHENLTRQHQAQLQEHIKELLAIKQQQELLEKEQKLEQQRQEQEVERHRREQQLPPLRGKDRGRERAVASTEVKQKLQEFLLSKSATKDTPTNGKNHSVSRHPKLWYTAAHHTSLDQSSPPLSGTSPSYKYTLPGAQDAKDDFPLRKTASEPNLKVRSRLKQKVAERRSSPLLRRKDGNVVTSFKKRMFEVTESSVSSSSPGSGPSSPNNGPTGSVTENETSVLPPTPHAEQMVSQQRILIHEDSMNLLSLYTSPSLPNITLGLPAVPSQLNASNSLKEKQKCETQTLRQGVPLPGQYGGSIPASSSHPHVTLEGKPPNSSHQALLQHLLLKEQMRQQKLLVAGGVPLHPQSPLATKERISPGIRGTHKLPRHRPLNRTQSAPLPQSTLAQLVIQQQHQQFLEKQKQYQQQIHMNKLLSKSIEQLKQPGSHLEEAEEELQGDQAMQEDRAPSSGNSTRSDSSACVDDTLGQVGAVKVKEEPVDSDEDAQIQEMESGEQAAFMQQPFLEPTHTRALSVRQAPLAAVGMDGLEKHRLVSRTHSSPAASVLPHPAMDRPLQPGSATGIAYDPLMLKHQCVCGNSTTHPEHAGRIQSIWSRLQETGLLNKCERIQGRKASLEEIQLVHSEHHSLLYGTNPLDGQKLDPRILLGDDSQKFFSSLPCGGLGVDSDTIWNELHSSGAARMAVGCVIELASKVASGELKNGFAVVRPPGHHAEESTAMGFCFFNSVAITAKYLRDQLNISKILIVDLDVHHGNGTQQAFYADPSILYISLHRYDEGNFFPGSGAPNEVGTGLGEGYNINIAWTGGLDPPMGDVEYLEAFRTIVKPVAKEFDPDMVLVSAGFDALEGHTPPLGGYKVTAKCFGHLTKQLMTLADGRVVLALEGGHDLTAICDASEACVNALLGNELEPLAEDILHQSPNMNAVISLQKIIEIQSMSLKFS
Sequence of Histone deacetylase 1 (Q13547 whole entry): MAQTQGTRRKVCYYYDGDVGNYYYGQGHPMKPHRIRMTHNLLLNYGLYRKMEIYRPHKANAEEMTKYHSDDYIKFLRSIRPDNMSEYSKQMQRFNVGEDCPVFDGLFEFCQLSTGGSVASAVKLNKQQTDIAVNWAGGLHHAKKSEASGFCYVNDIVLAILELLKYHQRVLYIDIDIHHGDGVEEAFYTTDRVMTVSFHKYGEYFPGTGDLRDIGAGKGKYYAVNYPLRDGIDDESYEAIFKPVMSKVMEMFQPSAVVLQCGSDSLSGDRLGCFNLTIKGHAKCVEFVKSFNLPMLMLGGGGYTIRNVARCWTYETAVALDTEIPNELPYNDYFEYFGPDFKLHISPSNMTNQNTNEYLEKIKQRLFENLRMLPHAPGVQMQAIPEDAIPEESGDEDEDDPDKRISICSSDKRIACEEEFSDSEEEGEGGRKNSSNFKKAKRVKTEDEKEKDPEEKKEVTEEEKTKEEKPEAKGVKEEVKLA
Sequence of Histone deacetylase 4 (P56524 whole entry): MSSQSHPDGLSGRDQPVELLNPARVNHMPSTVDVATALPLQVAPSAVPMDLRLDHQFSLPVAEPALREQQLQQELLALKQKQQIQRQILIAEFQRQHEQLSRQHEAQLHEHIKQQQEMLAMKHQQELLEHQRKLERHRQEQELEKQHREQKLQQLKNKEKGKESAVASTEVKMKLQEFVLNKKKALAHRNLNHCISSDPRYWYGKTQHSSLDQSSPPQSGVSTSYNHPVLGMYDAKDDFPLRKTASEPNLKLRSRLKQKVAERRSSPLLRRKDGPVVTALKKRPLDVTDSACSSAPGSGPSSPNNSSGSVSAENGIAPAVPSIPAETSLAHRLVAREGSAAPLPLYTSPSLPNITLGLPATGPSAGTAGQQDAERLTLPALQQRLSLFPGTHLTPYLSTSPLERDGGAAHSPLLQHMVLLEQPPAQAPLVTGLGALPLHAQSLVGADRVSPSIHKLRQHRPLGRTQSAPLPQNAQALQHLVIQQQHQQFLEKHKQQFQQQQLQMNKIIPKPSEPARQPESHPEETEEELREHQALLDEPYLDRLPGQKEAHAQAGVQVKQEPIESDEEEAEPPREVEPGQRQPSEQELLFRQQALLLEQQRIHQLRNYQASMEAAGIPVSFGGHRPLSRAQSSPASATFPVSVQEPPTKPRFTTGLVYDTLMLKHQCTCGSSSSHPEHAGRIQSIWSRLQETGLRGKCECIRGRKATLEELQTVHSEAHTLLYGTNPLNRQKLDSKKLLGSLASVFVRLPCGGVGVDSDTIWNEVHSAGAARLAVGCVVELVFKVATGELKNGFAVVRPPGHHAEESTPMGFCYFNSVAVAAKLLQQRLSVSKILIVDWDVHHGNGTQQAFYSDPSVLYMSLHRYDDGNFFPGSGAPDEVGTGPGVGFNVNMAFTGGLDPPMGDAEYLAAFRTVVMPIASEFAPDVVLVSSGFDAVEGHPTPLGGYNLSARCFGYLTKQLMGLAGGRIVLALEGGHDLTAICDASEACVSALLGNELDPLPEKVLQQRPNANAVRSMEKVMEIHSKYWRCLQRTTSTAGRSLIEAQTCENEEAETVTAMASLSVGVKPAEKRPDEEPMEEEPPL

SMILES	IC50 (HCT-116) [nM]	IC50 (A549) [nM]	IC50 (K562 [2]) [nM]	Ratio IC50 (K562 [3])	Activity (U-937 [4]) [%]	Activity (U-937 [5]) [%]	Activity (U-937 [7]) [%]	Activity (U-937 [9]) [%]	IC50 (Histone deacetylase 1) [nM]	IC50 (Histone deacetylase 3) [nM]	IC50 (Histone deacetylase 2) [nM]	IC50 [10] [nM]	IC50 (OCI-AML-3) [nM]	IC50 [11] [nM]	IC50 (OCI-AML2) [nM]	IC50 (MV4-11) [nM]	IC50 (Kasumi 1) [nM]	IC50 (U-937 [12]) [nM]	IC50 (HL-60) [nM]	IC50 (KARPAS-299) [nM]	further results
O=C(/C=C/c1ccc(NC(=O)C(Cc2ccccc2)c2ccccc2)cn1)NO (configuration not stated)	70	220	40	10	10	40	76	70	–	–	–	–	–	–	–	–	–	–	–	–	IC50 [1]: 11 nM; Activity (U-937 [6]): 40%; Activity (U-937 [8]): 60%
O=C(/C=C/c1ccc(NC(=O)Cc2cccc3ccccc23)cn1)NO	70	320	50	10	10	40	–	70	98	39	156	71	529	198	379	59	66	258	276	400	IC50 (Histone deacetylase 5; read-out: IC50): 1350 nM; IC50 (NB-4): 84 nM; IC50 (Histone deacetylase 8 [13]): 47 nM; IC50 (Histone deacetylase 7 [14]): 2060 nM; IC50 (Histone deacetylase 9 [15]): 2790 nM; IC50 (Histone deacetylase 11 [16]): 3980 nM
Nc1ccccc1NC(=O)c1ccc(NC(=O)C(Cc2ccccc2)c2ccccc2)cn1 (configuration not stated)	320	1510	320	–	10	–	–	70	353	515	431	320	–	–	–	–	–	–	–	–	IC50 (Histone deacetylase 4): Not Active; IC50 (Histone deacetylase 5): Not Active; IC50 (Histone deacetylase 11 [16]): 85400 nM; IC50 (Histone deacetylase 8 [17]): Not Active; IC50 (Histone deacetylase 7 [18]): Not Active; IC50 (Histone deacetylase 9 [19]): Not Active
Nc1ccccc1NC(=O)c1ccc(NC(=O)Cc2ccc3ccccc3c2)cn1	430	1280	370	–	10	–	100	70	189	440	227	446	4140	155	1500	170	257	822	218	9270	IC50 (Histone deacetylase 4): Not Active; IC50 (Histone deacetylase 5): Not Active; Activity (U-937 [6]; 48 h, 5 µM): 50% and 30%; IC50 (NB-4): 210 nM; IC50 (Histone deacetylase 8 [17]): Not Active; IC50 (Histone deacetylase 7 [18]): Not Active; IC50 (Histone deacetylase 9 [19]): Not Active; IC50 (Histone deacetylase 11 [20]): Not Active
